This passage reports Ki results from BindingDB's records for doi:10.1021/bi049459m (University of Florida College of Medicine, 2004).

Holding throughout (test): Protease Inhibition Assay
In assay [1] the target is T1, Dimer of Gag-Pol polyprotein [489-587,K509R,V521I,L522F,M525I,M535I,I543V,L552P,A560V,V571A,I573V,L579M] (Human immunodeficiency virus 1, UniProt P04585, A560V/I543V/I573V/K509R/L522F/L552P/L579M/M525I/M535I/V521I/V571A).
T1 construct: 489-587

Assay [2] has as its target T2, Dimer of Gag-Pol polyprotein [489-587,K509R,V521I,L522F,M525I,M535I,L552P,A560V,V571A,L579M] (Human immunodeficiency virus 1, UniProt P04585, A560V/K509R/L522F/L552P/L579M/M525I/M535I/V521I/V571A).
T2 construct: 489-587
Particulars: pH 4.7; 37 °C.

Assay [3] concerns the target T3, Dimer of Gag-Pol polyprotein [489-587,K509R,V521I,L522F,M525I,L552P,A560V,V571A,L579M] (Human immunodeficiency virus 1, UniProt P04585, A560V/K509R/L522F/L552P/L579M/M525I/V521I/V571A).
T3 construct: 489-587
The note with it: pH 4.7; 37 °C.

The target in assay [4] is T4, Dimer of Gag-Pol polyprotein [489-587,K509R,V521I,L522F,M525I,L552P,A560V,V571A,I573V,L579M] (Human immunodeficiency virus 1, UniProt P04585, A560V/I573V/K509R/L522F/L552P/L579M/M525I/V521I/V571A).
T4 construct: 489-587

The target of assay [5] is T5, Dimer of Gag-Pol polyprotein [489-587,K509R,V521I,L522F,M525I,I543V,L552P,A560V,V571A,I573V,L579M] (Human immunodeficiency virus 1, UniProt P04585, A560V/I543V/I573V/K509R/L522F/L552P/L579M/M525I/V521I/V571A).
T5 construct: 489-587

The target in assay [6] is T6, Dimer of Gag-Pol polyprotein [489-587] (Human immunodeficiency virus 1, UniProt P04585).
T6 construct: 489-587
Particulars: pH 4.7; 37 °C.

The target in assay [7] is T7, Dimer of Gag-Pol polyprotein [489-587,K509R,V521I,L522F,M525I,M535I,L552P,A560V,V571A,I573V,L579M] (Human immunodeficiency virus 1, UniProt P04585, A560V/I573V/K509R/L522F/L552P/L579M/M525I/M535I/V521I/V571A).
T7 construct: 489-587

The target of assay [8] is T8, Dimer of Gag-Pol polyprotein [489-587,K509R,V521I,L522F,M525I,I543V,L552P,A560V,V571A,L579M] (Human immunodeficiency virus 1, UniProt P04585, A560V/I543V/K509R/L522F/L552P/L579M/M525I/V521I/V571A).
T8 construct: 489-587
Particulars: pH 4.7; 37 °C.

As to `Cc1ccccc1CNC(=O)[C@H]1N(C(=O)[C@@H](O)[C@H](Cc2ccccc2)NC(=O)c2cccc(O)c2C)CSC1(C)C` [AG1776], the Ki in assay [1] came out at 5.6 nM; in assay [2], 0.5 nM; in assay [3], 0.04 nM; in assay [4], 0.55 nM; in assay [5], 9.4 nM; in assay [6], 0.021 nM. Moreover, the Ki in assay [7] came out at 2.2 nM; in assay [8], 0.19 nM.
